According to ChEMBL document CHEMBL1201862, “PubChem BioAssay data set” (2004):
Calls of active or inactive are those of the source.

How the values were obtained:
[1] = viability of PTEN-deleted HCT116 cells – cell-based, HCT116 PTEN knockout, dose response (AID 1047); format: functional;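 note: HCT116 colon tumor cells with PTEN knocked out; cells exposed to compound for 60 hours before readout; potency for loss of cell viability measured by luminescence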
[2] = molecular target: T1, Mitochondrial peptide methionine sulfoxide reductase (Bos taurus, UniProt P54149); test: Absorbance-based biochemical high throughput dose response assay for activators of Methionine sulfoxide reductase A (MsrA).; format: functional
T1 sequence (P54149 whole entry): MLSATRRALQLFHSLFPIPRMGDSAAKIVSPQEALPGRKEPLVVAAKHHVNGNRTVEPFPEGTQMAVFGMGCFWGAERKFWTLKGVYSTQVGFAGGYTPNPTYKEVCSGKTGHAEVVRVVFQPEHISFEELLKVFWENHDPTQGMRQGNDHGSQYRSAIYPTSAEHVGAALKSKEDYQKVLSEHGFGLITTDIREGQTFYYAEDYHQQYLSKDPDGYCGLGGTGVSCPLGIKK

[3] = molecular target: Photoreceptor-specific nuclear receptor (Homo sapiens, UniProt Q9Y5X4); format: functional, cell-based;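 note: CHO-S cells with Gal4-NCOR and VP16-NR2E3 two-hybrid luciferase reporter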
Chain of Photoreceptor-specific nuclear receptor (Q9Y5X4 whole entry, the tested form may be a part): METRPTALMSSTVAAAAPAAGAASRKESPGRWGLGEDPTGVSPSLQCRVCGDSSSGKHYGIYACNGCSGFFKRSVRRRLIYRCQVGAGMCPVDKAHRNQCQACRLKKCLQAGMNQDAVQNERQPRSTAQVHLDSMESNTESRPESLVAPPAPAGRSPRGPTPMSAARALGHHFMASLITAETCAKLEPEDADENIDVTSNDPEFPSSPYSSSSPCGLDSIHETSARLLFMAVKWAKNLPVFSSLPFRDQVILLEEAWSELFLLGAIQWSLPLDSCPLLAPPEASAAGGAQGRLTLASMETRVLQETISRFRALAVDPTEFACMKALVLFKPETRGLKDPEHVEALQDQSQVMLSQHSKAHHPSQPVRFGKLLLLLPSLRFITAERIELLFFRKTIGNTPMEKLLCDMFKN

[4] = HEK-293T viability loss after treatment – luminescence, T-cell screen hits, cytotoxicity control for TCR NF-kB inhibitor project, dose response (AID 489026); format: functional, cell-based;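 note: cells exposed to compound about 14 hours before the viability readout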
[5] = viability of HCT116 lacking mutant beta-catenin – cell-based, human colon tumor, dose response (AID 1045); format: functional;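 note: HCT116 colon tumor cells with beta catenin knocked out; cells exposed to compound for 60 hours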
HEK293 [6] = test: inhibition of NOD1-driven NF-kB reporter – cell-based, luminescence, uHTS, primary screen (AID 1578); format: functional; settings: Homo sapiens
HEK293 [7] = test: cells; format: functional, cell-based; settings: Homo sapiens
Paired box protein Pax-8 = Paired box protein Pax-8 (Homo sapiens, UniProt Q06710); test: PAX8 transcriptional activity inhibition in RMG-I – RMG-I cells, luciferase, cherry-pick, dose response (AID 687027); format: functional, cell-based;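 note: luciferase reporter driven by Pax8 target thyroperoxidase promoter measured by SteadyGlo luminescence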
Chain of Paired box protein Pax-8 (Q06710 whole entry, the tested form may be a part): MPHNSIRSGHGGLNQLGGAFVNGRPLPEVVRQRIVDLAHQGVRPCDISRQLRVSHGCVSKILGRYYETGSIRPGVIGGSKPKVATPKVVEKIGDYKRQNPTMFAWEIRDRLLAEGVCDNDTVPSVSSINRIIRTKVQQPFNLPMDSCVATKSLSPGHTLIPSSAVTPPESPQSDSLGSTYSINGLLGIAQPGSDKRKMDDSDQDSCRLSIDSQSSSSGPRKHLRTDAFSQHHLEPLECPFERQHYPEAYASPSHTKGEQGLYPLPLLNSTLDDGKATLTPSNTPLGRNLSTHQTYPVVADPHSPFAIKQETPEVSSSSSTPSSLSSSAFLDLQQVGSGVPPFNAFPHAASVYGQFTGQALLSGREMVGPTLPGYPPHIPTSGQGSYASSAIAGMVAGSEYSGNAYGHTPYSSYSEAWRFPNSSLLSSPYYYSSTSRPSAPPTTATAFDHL

[8] = molecular target: T2, RNA-binding protein pos-1 (Caenorhabditis elegans, UniProt G5EF15); test: disruptors of C. elegans POS-1 RNA interaction – biochemical, fluorescence polarization, dose response (AID 1964);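 note: purified POS-1 fused to maltose binding protein made in E. coli; potency of compounds blocking POS-1 binding to fluorescent RNA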
T2 sequence (G5EF15 whole entry): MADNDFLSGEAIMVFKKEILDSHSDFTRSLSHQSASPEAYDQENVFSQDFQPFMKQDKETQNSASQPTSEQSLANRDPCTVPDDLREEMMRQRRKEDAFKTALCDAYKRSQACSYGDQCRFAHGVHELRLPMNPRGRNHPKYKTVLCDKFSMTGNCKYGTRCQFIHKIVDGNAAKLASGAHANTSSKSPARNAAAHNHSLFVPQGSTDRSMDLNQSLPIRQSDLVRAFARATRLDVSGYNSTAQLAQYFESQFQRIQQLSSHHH

[9] = NIH3T3 cell viability loss – ATP luminescence, mouse fibroblasts, counter-screen, dose response (AID 2010); format: functional, cell-based;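 note: cells exposed to compound for about 90 hours before reading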
[10] = molecular target: UDP-galactopyranose mutase (Mycobacterium tuberculosis, UniProt P9WIQ1); test: Inhibitors of Mycobacterium tuberculosis UDP-galactopyranose mutase (UGM) enzyme Measured in Biochemical System Using Plate Reader - 2105-02_Inhibitor_Dose_CherryPick_Activity. [Related pubchem assays (depositor defined):AID504439]
Chain of UDP-galactopyranose mutase (P9WIQ1 whole entry): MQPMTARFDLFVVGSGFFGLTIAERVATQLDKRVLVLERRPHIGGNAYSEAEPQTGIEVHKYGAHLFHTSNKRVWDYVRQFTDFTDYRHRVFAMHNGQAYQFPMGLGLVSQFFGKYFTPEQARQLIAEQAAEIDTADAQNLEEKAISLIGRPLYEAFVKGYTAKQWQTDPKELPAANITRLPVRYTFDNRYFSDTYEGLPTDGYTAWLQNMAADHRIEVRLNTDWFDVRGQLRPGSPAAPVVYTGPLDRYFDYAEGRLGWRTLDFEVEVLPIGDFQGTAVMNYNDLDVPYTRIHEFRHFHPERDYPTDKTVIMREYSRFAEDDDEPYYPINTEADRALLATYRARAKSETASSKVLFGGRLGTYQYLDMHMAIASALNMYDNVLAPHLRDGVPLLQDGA

[11] = molecular target: T3, Microphthalmia-associated transcription factor (Homo sapiens, UniProt O75030); test: reducers of TRPM1 reporter luminescence, concentration series – cell-based, SK-MEL-5, cherry-picked, set 3, MITF inhibitor project, dose response (AID 493073); format: functional;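 note: SK-MEL-5 melanoma cells with luciferase driven by the MITF target TRPM1 promoter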
T3 sequence (O75030 whole entry): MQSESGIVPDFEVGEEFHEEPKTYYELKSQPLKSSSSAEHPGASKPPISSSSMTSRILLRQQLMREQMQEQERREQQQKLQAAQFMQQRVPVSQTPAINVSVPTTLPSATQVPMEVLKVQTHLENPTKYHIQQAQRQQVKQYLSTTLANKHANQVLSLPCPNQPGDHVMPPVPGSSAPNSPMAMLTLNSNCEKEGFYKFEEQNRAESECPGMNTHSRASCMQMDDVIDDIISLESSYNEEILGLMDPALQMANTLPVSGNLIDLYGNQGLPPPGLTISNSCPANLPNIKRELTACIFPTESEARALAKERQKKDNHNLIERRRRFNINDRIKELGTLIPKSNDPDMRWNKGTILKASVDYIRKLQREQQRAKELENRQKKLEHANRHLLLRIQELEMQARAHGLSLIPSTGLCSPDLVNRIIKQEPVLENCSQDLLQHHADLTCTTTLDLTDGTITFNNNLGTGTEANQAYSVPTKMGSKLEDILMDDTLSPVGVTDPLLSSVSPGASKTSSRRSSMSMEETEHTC

[12] = Trypanosoma cruzi growth suppression in host cells – NIH3T3 host cells, beta-gal luminescence, confirmation (AID 2044); format: functional, cell-based;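 note: intracellular parasites grown in NIH/3T3 mouse fibroblasts as host cells; luminescent beta-galactosidase reporter signal from transgenic T. cruzi replicating inside host cells; inhibitors lower the luminescence signal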
[13] = molecular target: T4, Zinc finger protein mex-5 (Caenorhabditis elegans, UniProt Q9XUB2); test: potency of MEX-5 RNA-binding blockers – biochemical, C. elegans, fluorescence polarization, dose response (AID 1960)
T4 sequence (Q9XUB2 whole entry): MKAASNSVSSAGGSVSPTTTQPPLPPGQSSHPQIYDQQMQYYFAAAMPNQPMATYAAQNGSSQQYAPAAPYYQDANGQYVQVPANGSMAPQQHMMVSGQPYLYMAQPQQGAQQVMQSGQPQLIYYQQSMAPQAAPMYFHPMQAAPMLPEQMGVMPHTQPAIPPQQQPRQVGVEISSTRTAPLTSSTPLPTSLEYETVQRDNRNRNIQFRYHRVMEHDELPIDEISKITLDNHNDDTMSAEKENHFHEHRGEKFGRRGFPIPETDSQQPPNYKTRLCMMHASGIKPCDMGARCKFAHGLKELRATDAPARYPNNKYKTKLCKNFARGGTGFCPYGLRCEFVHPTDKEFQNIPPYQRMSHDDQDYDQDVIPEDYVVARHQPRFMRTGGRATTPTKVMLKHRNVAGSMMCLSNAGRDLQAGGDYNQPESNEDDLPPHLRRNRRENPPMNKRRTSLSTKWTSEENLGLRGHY

[14] = Luminescence Cell-Based Dose Retest to Confirm Inhibitors of Cancer Stem Cells. [Related pubchem assays (depositor defined):AID2717, AID2721]; format: functional; settings: Homo sapiens
Genome polyprotein = Genome polyprotein (dengue virus type 2, UniProt P29990); test: flavivirus cap methylation enzyme inhibition – biochemical, confirmation dose response, primary screen (AID 588689); format: functional
Chain of Genome polyprotein (P29990 2492-3391 limits assumed): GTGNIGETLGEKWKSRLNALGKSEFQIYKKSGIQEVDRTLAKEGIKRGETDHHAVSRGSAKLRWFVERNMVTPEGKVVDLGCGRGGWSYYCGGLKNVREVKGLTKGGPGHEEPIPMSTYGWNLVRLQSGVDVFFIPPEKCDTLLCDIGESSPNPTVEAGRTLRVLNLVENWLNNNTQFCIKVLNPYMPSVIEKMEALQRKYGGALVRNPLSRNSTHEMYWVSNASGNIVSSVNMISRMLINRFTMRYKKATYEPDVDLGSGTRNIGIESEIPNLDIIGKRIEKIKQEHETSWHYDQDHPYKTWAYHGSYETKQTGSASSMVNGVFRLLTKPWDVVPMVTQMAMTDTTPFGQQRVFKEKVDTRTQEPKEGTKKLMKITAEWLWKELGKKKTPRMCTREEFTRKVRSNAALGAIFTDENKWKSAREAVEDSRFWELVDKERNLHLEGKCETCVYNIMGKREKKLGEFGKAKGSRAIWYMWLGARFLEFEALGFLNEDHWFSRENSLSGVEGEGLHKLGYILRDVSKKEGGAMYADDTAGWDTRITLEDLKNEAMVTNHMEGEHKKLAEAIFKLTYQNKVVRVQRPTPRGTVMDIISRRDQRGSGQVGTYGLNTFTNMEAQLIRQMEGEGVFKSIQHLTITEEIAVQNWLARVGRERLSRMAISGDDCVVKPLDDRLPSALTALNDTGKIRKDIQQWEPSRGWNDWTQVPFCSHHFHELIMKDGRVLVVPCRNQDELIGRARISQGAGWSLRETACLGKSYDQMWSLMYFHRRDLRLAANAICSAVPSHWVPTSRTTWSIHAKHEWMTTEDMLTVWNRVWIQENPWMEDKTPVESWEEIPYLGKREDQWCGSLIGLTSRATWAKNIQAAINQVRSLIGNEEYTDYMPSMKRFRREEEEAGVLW

Q: What does the source list for `COc1ccc(CNC(=O)c2c(C)oc3c2C(=O)c2ccccc2C3=O)cc1`?
A: EC50 [1]: 20.1 µM (active); EC50 [2]: > 104 µM (inactive); IC50 [3]: 1.21 µM (active); IC50 [4]: 21.5 µM (inactive); EC50 [5]: 13.9 µM (active)

Q: What does the source list for `CCSc1nsc(NC(=O)Nc2cccc(F)c2)n1`?
A: EC50 (HEK293 [6]): 3.22 µM (active); IC50 (HEK293 [7]): 3.7 µM (active); AC50 (Paired box protein Pax-8): 5.73 µM (active)

Q: For `O=[N+]([O-])c1ccc(/C=N/n2cnc3ccccc32)s1`, which EC50 [8] is on record?
A: > 300 µM (inconclusive)

Q: What about the EC50 [9] of the same compound?
A: 5.46 µM (active)

Q: And the AC50 [10]?
A: 148 µM (active)

Q: And the AC50 [11]?
A: 6.25 µM (active)

Q: And the EC50 [12]?
A: 0.257 µM (active)

Q: And the EC50 [13]?
A: > 300 µM (inconclusive)

Q: What about the AC50 [14] of the same compound?
A: 3.84 µM (active)

Q: Which IC50 (Genome polyprotein) does the source give for `CC(C)c1ccc(S(=O)(=O)/N=C2\C=C(NS(=O)(=O)c3ccccc3)C(=O)c3ccccc32)cc1` here?
A: 25.7 µM (active)
